We go through 15 compounds from US10336731B2, “Substituted 1H-indole-2-carboxamide compounds as indoleamine-2,3-dioxygenase inhibitors” (Merck Sharp & Dohme Corp., priority 2015, dated 2019).

The structures appear in SMILES notation.

hIDO1, sequence (P14902 whole entry): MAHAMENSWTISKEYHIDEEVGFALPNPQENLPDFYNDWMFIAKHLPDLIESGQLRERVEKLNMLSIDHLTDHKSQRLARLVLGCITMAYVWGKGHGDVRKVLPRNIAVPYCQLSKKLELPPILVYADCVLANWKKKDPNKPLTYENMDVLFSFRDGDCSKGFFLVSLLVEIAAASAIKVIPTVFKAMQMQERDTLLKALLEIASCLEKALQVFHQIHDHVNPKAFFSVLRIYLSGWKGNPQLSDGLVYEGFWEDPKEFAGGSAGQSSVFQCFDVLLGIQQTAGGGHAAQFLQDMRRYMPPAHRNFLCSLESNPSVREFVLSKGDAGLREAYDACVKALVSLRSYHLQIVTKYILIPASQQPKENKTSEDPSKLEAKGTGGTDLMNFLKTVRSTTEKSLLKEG

The target of the first experiment is IDO (SKOV-3 cells) (Homo sapiens (Human), UniProt P14902). Kind of experiment: IDO cell-based assay (kynurenine production in IFNγ-induced SKOV-3 cells). Particulars: IFNγ 500 ng/ml, 500 μM L-Trp, 48 h, read-out: pIC50, IDO cellular assay (SKOV3) (converted). From the text: (§1) For REF1-REF3 and Compounds 1-11, two different types of assay were employed: 1. An IDO biochemical coupled assay which utilised recombinantly produced and purified IDO enzyme in combination with the enzyme formamidase. This coupled enzyme system allowed conversion of N-formylkynurenine produced by IDO activity to kynurenine which was then quantified by fluorescence following addition of Erhlich's Reagent. 2. A cell-based assay for detecting the effect of test compounds on kynurenine production in cancer cells. This assay utilised cancer cells which expressed IDO and as such was used as a means of testing compound activity at the enzyme in a cell-based context. The protocols for these are set out below.
IDO (SKOV-3 cells), sequence (P14902 whole entry): as above
SKOV-3 ovary adenocarcinoma (ATCC) cells were grown in McCoys 5A+L-glutamax medium supplemented with 15% foetal bovine serum. On the day of assay, cells were detached using trypsin-EDTA (0.25% v/v), re-suspended in assay media (RPMI 1640 phenol red free+L-glutamine supplemented with 10% dialysed foetal bovine serum). SKOV-3 cells were seeded at 40K cells per well into 96-well plates containing test samples/vehicle control together with 500 μM L-Trp. Cells were then incubated for 48 h at 37° C. 5% CO2. IFNγ was also added at 500 ng/ml for the 48 h incubation in order to induce expression of IDO. Plates were centrifuged and the supernatant was removed and incubated for 5 min in the presence of 1% Erhlich's reagent. Kynurenine levels were then quantified by measuring absorbance at 490 nm.
Regarding `C[C@H]1C[C@@]1(NC(=O)c1cc2cc(Br)ccc2[nH]1)c1cnn(C)c1` (racemic) [Compound 2, racemic], the IC50 was 31.6 nM. On to `C[C@H]1C[C@@]1(NC(=O)c1cc2cc(C#N)ccc2[nH]1)c1cnn(-c2ccccc2)c1` (single isomer, unassigned) [Compound 9, enantiomer 1], for which the IC50 was 77.6 nM. The same measure, in the same setting: the figure for `C[C@H]1C[C@@]1(NC(=O)c1cc2cc(C#N)ccc2[nH]1)c1cnn(-c2ccccc2)c1` (single isomer, unassigned) [Compound 9, enantiomer 2] is 43.7 nM; for `C[C@H]1C[C@@]1(NC(=O)c1cc2cc(Cl)ccc2[nH]1)c1cnn(-c2ccc(Cl)cc2)c1` (single isomer, unassigned) [Compound 10, enantiomer 1] it is 34.7 nM; for `C[C@H]1C[C@@]1(NC(=O)c1cc2cc(Cl)ccc2[nH]1)c1cnn(-c2ccc(Cl)cc2)c1` (single isomer, unassigned) [Compound 10, enantiomer 2] it is 11.7 nM. Still for that read-out and setting: in the case of `C[C@H]1C[C@@]1(NC(=O)c1cc2cc(Cl)ccc2[nH]1)c1cnn(-c2ccc(F)cc2)c1` (single isomer, unassigned) [Compound 11, enantiomer 1] it was 28.2 nM; in that of `C[C@H]1C[C@@]1(NC(=O)c1cc2cc(Cl)ccc2[nH]1)c1cnn(-c2ccc(F)cc2)c1` (single isomer, unassigned) [Compound 11, enantiomer 2], 10 nM; in that of `CCc1nn(C)cc1C1(NC(=O)c2cc3cc(Cl)ccc3[nH]2)CC1` [Compound 3], 89.1 nM. As for `CC(C)c1nn(C)cc1C1(NC(=O)c2cc3cc(Cl)ccc3[nH]2)CC1` [Compound 4], the IC50 was 87.1 nM.

Take `O=C(NC1(c2cnn(-c3ccccc3)c2)CC1)c1cc2cc(Cl)ccc2[nH]1` [Compound 5]: the IC50 was 91.2 nM. Still for that read-out and setting: in the case of `Cn1cc(C2(NC(=O)c3cc4cc(Br)cc(F)c4[nH]3)CC2)cn1` [Compound 6] it was 83.2 nM; in that of `Cn1cc(C2(NC(=O)c3cc4cc(Cl)ccc4[nH]3)CC2)cn1` [REF 1, reference compound], 126 nM; in that of `CCn1cc(C2(NC(=O)c3cc4cc(Cl)ccc4[nH]3)CC2)cn1` [REF 2, reference compound], 186 nM. Same read-out and setting: the figure for `Cn1cc(C2(NC(=O)c3cc4cc(Br)ccc4[nH]3)CC2)cn1` [REF 3, reference compound] is 182 nM.

For a further experiment, the target named is human IDO protein (Homo sapiens (Human), UniProt P14902). Kind of experiment: IDO biochemical coupled assay (formamidase, Ehrlich's reagent). Particulars: 0.17 μM human IDO, 120 min pre-incubation, 45 μM L-Trp; read-out: hIDO biochemical assay pIC50 (converted).
human IDO protein, sequence (P14902 whole entry): as above
From the text: as §1
0.17 μM of human IDO protein was pre-incubated for 120 min at RT with test compounds in the presence of 50 mM KPO4, pH 7.0, 0.5 mM EDTA, 0.5 mM EGTA, 0.05% Triton X-100, 20 mM ascorbate, 500 U/ml catalase, 10 μM methylene blue at RT in a 384 well plate. 0.05 μg/μl kynurenine formamidase and 45 μM L-tryptophan (L-Trp) were added and the assays were incubated at RT for 40 min. Assays were stopped and the level of kynurenine was determined by incubation with Ehrlich's reagent to a final concentration of 1.33% at RT for 5 min. Fluorescence intensity was read at 475 nm/530 nm.
For `C[C@H]1C[C@@]1(NC(=O)c1cc2cc(Br)ccc2[nH]1)c1cnn(C)c1` (racemic) [Compound 2, racemic], the IC50 was 398 nM.

The next experiment concerns the target hIDO1 (Homo sapiens (Human), UniProt P14902). The experiment is described as follows: IDO1 cellular assay in HEK293 cells transiently expressing hIDO1. Format: cell-based. The following applies: HEK293 cell line transiently expressing hIDO1, n=1. On the procedure:
Compounds to be tested were serially diluted in ten 3-fold steps in DMSO starting from 10 mM DMSO stocks. Compound dilutions or DMSO alone were then dispensed from the dilution plate into a Greiner black 384-well assay plate (catalog #781086) using an Echo 550 acoustic liquid handler (Labcyte).
HEK293 cell pellets were resuspended to 5×10^5 cells/mL in complete HEK293 culture media (89% DMEM, 10% FBS, 1% penicillin/streptomycin). Suspended cells (2 mL) were dispensed into each well of a 6-well Corning plate (Catalog#3516). Cells were allowed to attach and were incubated for 20 hours at 37 degrees Celsius in a 5% CO2 incubator. […]
Media was removed from the cells which were then washed with 2 mL Dulbecco's phosphate-buffered saline (DPBS). […] Plates were incubated at 37 degrees in a 5% CO2 incubator overnight to develop fluorescence. […] The resulting fluorescence was measured in an Envision plate reader (Perkin Elmer) with a 400/25 nm excitation filter and an 510/20 nm emission filter.
The fluorescence intensity of each well was corrected for the background observed in wells with untransfected cells and was expressed as a fraction of the intensity observed in wells of IDO1 transfected cells and DMSO only. Potencies were calculated by […] to the four parameter logistic IC50 equation.
The compound `C[C@@H]1C[C@]1(NC(=O)c1cc2cc(C#N)ccc2[nH]1)c1cnn(C)c1` (stereo in doubt) [Compound 12, 5-cyano-N-((1R,2R)-2-methyl-1-(1-methyl-1H-pyrazol-4-yl)cyclopropyl)-1H-indole-2-carboxamide] had an IC50 of 202 nM.
